Measurements as given in patent US20210032257A1, “(E)-1-(4-(DIMETHYLAMINO)BUT-2-ENOYL)PYRROLIDIN-3-YL 4-((3-ISOPROPYL-5-METHYLPYRAZOLO[1,5-A]PYRIMIDIN-7-YL)AMINO)PIPERIDINE-1-CARBOXYLATE FOR INHIBITING CDK7” (Eli Lilly and Company, priority 2017, published 2021).

How the values were obtained:
CDK12/CycK = target: T1, CDK12/CycK (Homo sapiens, UniProt Q9NYV4); test: ProQinase radiometric protein kinase assay, 10 concentrations; assay type: biochemical; conditions: kinase 14.7 nM, ATP 0.3 μM
T1 construct: purchased ProQinase
T1 sequence (Q9NYV4 whole entry): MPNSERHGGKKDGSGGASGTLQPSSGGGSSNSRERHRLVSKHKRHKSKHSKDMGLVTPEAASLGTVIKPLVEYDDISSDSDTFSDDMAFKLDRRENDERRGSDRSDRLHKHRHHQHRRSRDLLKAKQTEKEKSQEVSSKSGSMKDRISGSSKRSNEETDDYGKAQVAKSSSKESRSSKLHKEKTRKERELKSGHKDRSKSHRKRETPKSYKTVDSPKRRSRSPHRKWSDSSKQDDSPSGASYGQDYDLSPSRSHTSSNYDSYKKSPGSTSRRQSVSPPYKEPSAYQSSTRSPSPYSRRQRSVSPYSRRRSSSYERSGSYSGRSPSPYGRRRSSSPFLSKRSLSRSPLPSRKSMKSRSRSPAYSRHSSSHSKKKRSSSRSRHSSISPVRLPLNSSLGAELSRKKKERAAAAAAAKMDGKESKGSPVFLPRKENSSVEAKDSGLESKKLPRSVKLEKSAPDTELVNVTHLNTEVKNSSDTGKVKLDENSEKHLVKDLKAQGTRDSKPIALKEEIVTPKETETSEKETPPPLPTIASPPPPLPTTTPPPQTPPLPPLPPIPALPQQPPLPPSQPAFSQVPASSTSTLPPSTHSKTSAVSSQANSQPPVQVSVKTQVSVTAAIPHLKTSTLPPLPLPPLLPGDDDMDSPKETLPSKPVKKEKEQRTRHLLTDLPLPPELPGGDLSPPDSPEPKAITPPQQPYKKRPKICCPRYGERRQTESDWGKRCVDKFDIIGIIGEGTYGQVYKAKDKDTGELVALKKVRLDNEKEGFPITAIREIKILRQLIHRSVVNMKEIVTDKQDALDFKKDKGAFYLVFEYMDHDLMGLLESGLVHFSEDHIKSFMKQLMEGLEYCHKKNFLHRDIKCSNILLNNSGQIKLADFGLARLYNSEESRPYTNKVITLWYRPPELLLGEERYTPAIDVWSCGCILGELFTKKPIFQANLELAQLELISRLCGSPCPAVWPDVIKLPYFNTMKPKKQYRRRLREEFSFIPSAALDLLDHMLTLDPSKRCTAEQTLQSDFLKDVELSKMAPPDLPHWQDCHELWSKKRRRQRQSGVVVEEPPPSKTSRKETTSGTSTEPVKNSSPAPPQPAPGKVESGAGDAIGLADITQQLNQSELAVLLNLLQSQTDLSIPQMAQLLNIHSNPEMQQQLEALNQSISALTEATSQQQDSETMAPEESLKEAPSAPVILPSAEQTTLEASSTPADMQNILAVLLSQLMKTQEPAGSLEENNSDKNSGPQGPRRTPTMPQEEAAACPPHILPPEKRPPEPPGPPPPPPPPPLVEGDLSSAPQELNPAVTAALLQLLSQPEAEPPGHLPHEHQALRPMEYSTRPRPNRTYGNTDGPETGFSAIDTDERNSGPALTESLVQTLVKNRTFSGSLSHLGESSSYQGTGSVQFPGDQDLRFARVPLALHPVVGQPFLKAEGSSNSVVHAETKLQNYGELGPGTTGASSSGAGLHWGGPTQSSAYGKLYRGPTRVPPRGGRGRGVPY
T1 sequence (O75909 whole entry partner): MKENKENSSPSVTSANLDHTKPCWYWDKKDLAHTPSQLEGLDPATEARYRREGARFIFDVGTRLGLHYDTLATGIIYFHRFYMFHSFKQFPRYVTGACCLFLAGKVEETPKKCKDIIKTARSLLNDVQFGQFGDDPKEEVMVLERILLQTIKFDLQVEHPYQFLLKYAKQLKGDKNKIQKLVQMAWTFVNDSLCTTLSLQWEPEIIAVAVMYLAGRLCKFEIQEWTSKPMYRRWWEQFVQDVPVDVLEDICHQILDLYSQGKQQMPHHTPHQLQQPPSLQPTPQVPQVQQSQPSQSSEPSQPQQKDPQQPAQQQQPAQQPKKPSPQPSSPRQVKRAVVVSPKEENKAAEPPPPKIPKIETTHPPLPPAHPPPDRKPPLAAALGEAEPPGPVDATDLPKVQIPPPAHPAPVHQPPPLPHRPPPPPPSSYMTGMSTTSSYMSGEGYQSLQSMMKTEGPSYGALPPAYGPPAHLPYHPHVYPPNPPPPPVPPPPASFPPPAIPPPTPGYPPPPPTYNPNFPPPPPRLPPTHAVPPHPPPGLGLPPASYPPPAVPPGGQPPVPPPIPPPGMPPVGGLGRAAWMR
Method: (§1) A radiometric protein kinase assay (33PANQINASE® Activity Assay, ProQinase) is used for measuring the kinase activity of the 320 protein kinases. All kinase assays are performed in 96-well FLASHPLATES™ in a 50 μL reaction volume. The reaction cocktail is pipetted in 4 steps in the following order:
(§2) All PKC assays (except the PKC-mu and the PKC-nu assay) additionally contain 1 mM CaCl2). 4 mM EDTA, 5 μg/mL Phosphatidylserine and 1 μg/mL 1,2-Dioleyl-glycerol. The CAMK1D, CAMK2A, CAMK2B, CAMK2D, CAMK2G, CAMK4, CAMKK1, CAMKK2, DAPK2, EEF2K, MYLK, MYLK2 and MYLK3 assays additionally contain 1 μg/mL Calmodulin and 0.5 mM CaCl2). The PRKG1 and PRKG2 assays additionally contain 1 μM cGMP. The DNA-PK assay additionally contained 2.5 μg/mL DNA.
(§3) The protein kinase reaction cocktails are incubated at 30° C. for 60 minutes. […] Kinases from external vendors (CAR=Carna Biosciences Inc.; INV=Life Technologies (Invitrogen Corporation™); MIL=Merck-Millipore (Millipore Corporation™), see Table 1) are expressed, purified and quality-controlled by virtue of the vendors readings.
(§4) CDK12 and CDK13 (ProQinase) are tested essentially as above but separately at 10 concentrations ([…] to […]) using semi-logarithmic dilutions. For the 10 points, the analysis the residual activities for each concentration and the compound IC50 values are calculated using QUATTRO® WORKFLOW™ V3.1.1. […]

CDK13/CycK = target: T2, CDK13/CycK (Homo sapiens, UniProt Q14004); test: as above; assay type: biochemical; conditions: kinase 29.2 nM, ATP 0.3 μM
T2 construct: purchased ProQinase
T2 sequence (Q14004 whole entry): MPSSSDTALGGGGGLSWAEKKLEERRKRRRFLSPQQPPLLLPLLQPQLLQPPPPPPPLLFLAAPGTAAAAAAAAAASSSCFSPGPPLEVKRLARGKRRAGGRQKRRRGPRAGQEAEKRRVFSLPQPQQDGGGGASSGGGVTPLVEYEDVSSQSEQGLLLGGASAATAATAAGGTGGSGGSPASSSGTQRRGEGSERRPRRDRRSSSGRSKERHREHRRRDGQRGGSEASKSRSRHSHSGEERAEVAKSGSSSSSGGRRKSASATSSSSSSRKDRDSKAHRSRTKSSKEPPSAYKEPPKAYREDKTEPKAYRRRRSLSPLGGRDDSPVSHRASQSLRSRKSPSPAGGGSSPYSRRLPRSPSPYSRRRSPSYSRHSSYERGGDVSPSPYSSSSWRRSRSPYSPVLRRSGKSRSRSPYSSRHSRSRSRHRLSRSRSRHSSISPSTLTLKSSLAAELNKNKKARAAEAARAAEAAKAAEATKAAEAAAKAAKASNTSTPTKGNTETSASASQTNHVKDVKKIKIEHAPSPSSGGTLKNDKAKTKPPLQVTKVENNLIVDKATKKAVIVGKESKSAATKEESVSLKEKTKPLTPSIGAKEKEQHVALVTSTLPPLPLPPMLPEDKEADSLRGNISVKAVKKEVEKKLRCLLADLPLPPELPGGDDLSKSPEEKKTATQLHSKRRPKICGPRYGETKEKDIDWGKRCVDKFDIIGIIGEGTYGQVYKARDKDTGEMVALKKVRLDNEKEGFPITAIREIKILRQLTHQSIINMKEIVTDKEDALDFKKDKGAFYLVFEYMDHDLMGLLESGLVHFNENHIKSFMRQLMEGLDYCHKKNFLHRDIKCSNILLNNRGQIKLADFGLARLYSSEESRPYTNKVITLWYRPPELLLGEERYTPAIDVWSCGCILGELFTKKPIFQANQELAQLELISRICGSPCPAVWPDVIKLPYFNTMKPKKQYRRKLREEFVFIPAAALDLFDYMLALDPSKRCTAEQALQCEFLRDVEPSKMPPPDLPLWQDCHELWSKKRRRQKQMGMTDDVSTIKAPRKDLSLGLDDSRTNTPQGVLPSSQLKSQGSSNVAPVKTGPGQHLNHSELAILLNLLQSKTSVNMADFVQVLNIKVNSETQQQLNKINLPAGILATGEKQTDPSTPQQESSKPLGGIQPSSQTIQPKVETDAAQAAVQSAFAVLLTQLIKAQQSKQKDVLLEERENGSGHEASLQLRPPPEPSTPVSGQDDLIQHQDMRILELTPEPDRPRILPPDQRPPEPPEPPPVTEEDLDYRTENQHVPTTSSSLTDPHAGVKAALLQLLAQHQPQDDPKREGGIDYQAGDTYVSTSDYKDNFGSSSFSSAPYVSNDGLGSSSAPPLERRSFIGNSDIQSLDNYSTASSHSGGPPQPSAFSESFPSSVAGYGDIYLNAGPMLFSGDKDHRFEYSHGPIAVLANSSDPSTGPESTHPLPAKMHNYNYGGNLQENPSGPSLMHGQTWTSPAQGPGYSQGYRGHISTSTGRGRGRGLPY
T2 sequence (O75909 whole entry partner): as the sequence (O75909 whole entry partner) above
Method: as §1, §2, §3, §4

A2780 = test: Cell Proliferation Assay (CELL TITER GLO); assay type: cell-based; conditions: Homo sapiens, 168 h; A2780, Ovarian Cancer, seven days
Method: (§5) Cell lines are plated at the density 5000 cells per well in 100 μL per well growth medium into a white 96-well cell culture plate. See Table 2 for cell line and culture medium information. Plates are incubated at 37° C. and 5% CO2. The following day, a serial dilution of the test compound is prepared by diluting the compound 1:3 in DMSO for 10 points. The DMSO plate is 1000× the final concentration. In addition to the CDK7 inhibitor, a DMSO alone column is included as a maximum growth control and 10 μM staurosporine final column is included as a maximum growth inhibition control. A 10× dilution plate is then prepared by adding 2 μL per well from the 1000×DMSO plate to 198 μL per well of OMEM (Life Technologies, Carlsbad, Calif., cat #31985-070). Cells are treated with indicated compound by adding 11 μL per well from the 10×OMEM plate to the cell plate containing 100 μL per well growth medium for a 1× final concentration. Plates are placed back into the incubator at 37° C. and 5% CO2. Seven days after compound addition, plates are removed from the incubator and allowed to equilibrate to RT. CELL TITER GLO® reagent is thawed at room temperature and then prepare by mixing one vial of assay buffer with one vial of substrate and swirl gently to mix. CELL TITER GLO® reagent is then added to the cell plate, 100 μL per well, and place on a Titer Plate Shaker at speed setting 2 for 15 minutes at room temperature. After 15 minute incubation on shaker, luminescence is read, 1 second per well, using a Wallac VICTOR2™. Nonlinear regression and sigmoidal dose-response curves are used to calculate the half maximal inhibitory concentration (IC50) with Graphpad Prism 6 software.

HCC1806 = test: Cell Proliferation Assay (CELL TITER GLO); assay type: cell-based; conditions: Homo sapiens, 168 h; HCC1806, Breast Cancer, seven days
Method: as §5

NCI-H446 = test: Cell Proliferation Assay (CELL TITER GLO); assay type: cell-based; conditions: Homo sapiens, 168 h; NCI-H446, Lung Cancer, seven days
Method: as §5

HCT116 = test: Cell Proliferation Assay (CELL TITER GLO); assay type: cell-based; conditions: Homo sapiens, HCT-116, 168 h; HCT116, Colorectal Cancer, seven days
Method: as §5

MCF7 = test: Cell Proliferation Assay (CELL TITER GLO); assay type: cell-based; conditions: Homo sapiens, 168 h; MCF7, Breast Cancer, seven days
Method: as §5

NCI-H460 = test: Cell Proliferation Assay (CELL TITER GLO); assay type: cell-based; conditions: Homo sapiens, 168 h; NCI-H460, Lung Cancer, seven days
Method: as §5

SNU-16 = test: Cell Proliferation Assay (CELL TITER GLO); assay type: cell-based; conditions: Homo sapiens, 168 h; SNU-16, Gastric Cancer, seven days
Method: as §5

## Cc1cc(NC2CCN(C(=O)O[C@H]3CCN(C(=O)/C=C/CN(C)C)C3)CC2)n2ncc(C(C)C)c2n1 [Example 1, [(3S)-1-[(E)-4-(dimethylamino)but-2-enoyl]pyrrolidin-3-yl] 4-[(3-isopropyl-5-methyl-pyrazolo[1,5-a]pyrimidin-7-yl)amino]piperidine-1-carboxylate]
CDK12/CycK
  IC50: 14800 nM
CDK13/CycK
  IC50: ≥ 20000 nM
A2780
  IC50: 26.5 nM
HCC1806
  IC50: 25.5 nM
NCI-H446
  IC50: 14.2 nM
HCT116
  IC50: 46 nM
MCF7
  IC50: 32 nM
NCI-H460
  IC50: 47.9 nM
SNU-16
  IC50: 23.1 nM
